Square brackets hold non-standard residues; d marks the D form. Peptide text beside a SMILES is read from it. Phe(ol) = N[C@H](CO)Cc1ccccc1; Leu(ol) = CC(C)C[C@H](N)CO; dIva = CC[C@@](C)(N)C(=O)O; Aib = CC(C)(N)C(=O)O
Tests used:
PfMDR1 cKD parasite line = assay: MDR1 compound susceptibility assay (Renilla luciferase); on pfMDR1 cKD Sensitivity: key: -: A '–' indicates a negative finding; a single '+' indicates a positive finding; a double '++' indicates a strong positive finding; format: cell-based, P. falciparum; conditions: for shift in sensitivity upon PfMDR1 knockdown: with (0.5 μM) vs without aTc, 72 h, luminescence; for pfMDR1 cKD Sensitivity: Figure 7A summary / graphical abstract
Text: A conditional knockdown parasite line was generated for the P. falciparum multi-drug resistance 1 (MDR1; PF3D7_0523000) following previously described procedures.[84]^,[85] The native PfMDR1 locus was engineered using CRISPR/SpCas9 to afford transcriptional fusion of 10 tandem TetR-DOZI binding aptamers in the 3′UTR for anhydrotetracycline (aTc)-dependent regulation of PfMDR1 expression.
As a control cell line, a parasite line expressing an aptamer-regulatable fluorescent protein integrated in the cg6 locus[84] was assayed in parallel. Synchronous ring-stage parasites in the presence (0.5 μM) and absence of aTc were dispensed into 384-well polystyrene microplates (Corning®), and compounds added using the Janus® platform (PerkinElmer). DMSO- and DHA (0.5 μM) served as normalization controls for maximal and minimum signal. Luminescence was measured after 72 h and IC50 values were obtained from normalized dose-response curves using GraphPad Prism Version 8.

HepG2 cells = assay: HepG2 cytotoxicity assay (MTS); format: cell-based, H. sapiens; conditions: for EC50: 48 h, MTS, absorbance 490 nm, highest concentration 25 μM, mean ± SEM, biological triplicate; for cytotoxicity in HepG2: highest concentration tested 25 μM
Protocol: HepG2 cells are grown at 37°C in DMEM with 10% FBS, 1% Antibiotic/Antimycotic, 0.3% NaHCO3, 5 mM HEPES pH 7.4, and 2 mM L-glutamine as needed in an atmosphere containing 5% CO2.
The cytotoxicity assay was performed as reported previously.[35] HepG2 cells were seeded at ∼2,250 cells per well 24 h prior to compound addition. Cells were then incubated for an additional 48 h prior to the addition of MTS and absorbance reading at 490 nm on Synergy Neo2 multimode reader (BioTek, Winsooki, VT). Cytotoxicity EC50 values were determined using CDD Vault (https://www.collaborativedrug.com/).

[1] = system: digestive vacuole of functionally isolated 3D7 trophozoites; assay: FITC-dextran measurements of DV pH and membrane integrity; on DV Alkylization: key: -: A '–' indicates a negative finding; a single '+' indicates a positive finding; a double '++' indicates a strong positive finding; format: cell-based, P. falciparum; conditions: for localization of membrane impermeable dye FITC-dextran (DV membrane leakage): microscopic analysis after 2 h; for DV Alkylization: Figure 7A summary
Protocol: Preloading of 3D7 parasites with FITC-dextran was done as outlined in Saliba et al.[68] In summary, 2.25 mL of pre-warmed lysis buffer (5 mM HEPES, 11 mM glucose, 2 mM MgCl2, 2 mM ATP, and 110 μM FITC-dextran, pH 7.4) was added to 1 mL of packed RBCs and incubated at 30°C for 10 min. After, 2.25 mL of resealing buffer (280 mM NaCl, 40 mM KCl, 11 mM glucose, and 1 mM HEPES, pH 7.4) was added and cells were pelleted at 1,200 x g for 5 min then washed 3 x in RPMI. FITC-dextran loaded RBCs were then resuspended with 1 mL of synchronous trophozoite stage parasites (10–20%) parasitemia, at 4% hematocrit. Cultures were maintained in 50 mL for a minimum of 2 life cycles, until parasitemia reached >15%.
For assay use, trophozoite stage parasites were functionally isolated as described by van Schalkwyk et al. and Kirk et al. with some modifications.[69]^,[70] Parasites were resuspended in warm media with 0.05% saponin then centrifuged immediately at 2,060 x g for 10 min. Cells were washed in RPMI media 3 x then resuspended in HEPES buffered saline (100 mM KCl, 30 mM NaCl, 2 mM MgCl2, and 5 mM HEPES, pH 7.3) at 5 x 10^6 cells/mL. […] Samples were collected at 0.5, 1, and 2 h for flow cytometry using a CytoFLEX S (Beckman Coulter, Brea, CA), excitation 488 nm, emissions 530 and 585 nm. Gating was performed in FlowJo Version 10 using FITC-dextran loaded and unloaded controls. The ratio (Rgy) of the fluorescent intensity values was then graphed using Graph Pad Prism Version 9. For microscopic analysis, samples were collected after 2 h of treatment and imaged on a Leica TCS SP5 II confocal microscope (Leica Microsystems, Wetzlar, DE.) at excitation 488, emission 520 nm with a 30 nm bandpass filter, then processed with LAS-X software. Significance determined using a one-way ANOVA multiple comparisons test in GraphPad Prism Version 9.0.

[2] = Electrophysiology: reconstitution into planar lipid bilayers; conditions: for channel activity in planar lipid bilayers: 1 μM peptaibol, DPhPc bilayers, pH 7.0 saline; for Channel Induction: Figure 7A summary; on Channel Induction: key: -: A '–' indicates a negative finding; a single '+' indicates a positive finding; a double '++' indicates a strong positive finding
Protocol: Ion channel formation by peptaibols was evaluated with reconstitution into planar lipid bilayers using the Orbit Mini workstation (Nanion). Bilayers were formed from a 5 mg/ml decane solution of 1,2-diphytanoyl-sn-glycero-3-phosphocholine (DPhPc, Avanti Polar Lipids) across 100 μm diameter orifices in the MECA 4 recording chip with 4 microcavities. The bilayers were bathed with saline (in mM: 70 NaCl, 70 KCl, 2.5 MgCl2, 2 CaCl2, 10 HEPES, 10 MES, 10 glucose, pH 7.0) at both faces, with resistances of up to 500 GΩ before channel incorporation. Peptaibols were added from a 10 mM DMSO stock to the cis chamber at a final 1 μM concentration; spontaneous incorporation into the bilayer typically occurred within 10–15 min. Recordings were acquired at 20 kHz and filtered at 1.25 kHz.

[3] = 5 x EC50, isolated trophozoites

Compound | shift in sensitivity upon PfMDR1 knockdown (PfMDR1 cKD parasite line) | EC50 (HepG2 cells) [µM] | cytotoxicity in HepG2 (HepG2 cells) | pH dependent fluorescence ratio (FI585/FI530), DV pH, after 0.5 h [1, 3] | localization of membrane impermeable dye FITC-dextran (DV membrane leakage) ([1]; 5 x EC50) | pfMDR1 cKD Sensitivity (PfMDR1 cKD parasite line) | pH dependent fluorescence ratio (FI585/FI530), DV pH, 0.5, 1 or 2 h [1, 3] | DV Alkylization [1] | channel activity in planar lipid bilayers [2] | Channel Induction [2] | pH dependent fluorescence ratio (FI585/FI530), DV pH, after 1 h [1, 3] | pH dependent fluorescence ratio (FI585/FI530), DV pH, after 2 h [1, 3]
CC(=O)NC(C)(C)C(=O)N1CCC[C@H]1C(=O)NC(C)(C)C(=O)N[C@@H](C)C(=O)NC(C)(C)C(=O)N[C@@H](C)C(=O)N[C@@H](CCC(N)=O)C(=O)NC(C)(C)C(=O)N[C@H](C(=O)NC(C)(C)C(=O)NCC(=O)N[C@@H](CC(C)C)C(=O)NC(C)(C)C(=O)N1CCC[C@H]1C(=O)N[C@H](C(=O)NC(C)(C)C(=O)NC(C)(C)C(=O)N[C@@H](CCC(=O)O)C(=O)N[C@@H](CCC(N)=O)C(=O)N[C@H](CO)Cc1ccccc1)C(C)C)C(C)C [Alamethicin, reference compound] (Ac-[Aib]P[Aib]A[Aib]AQ[Aib]V[Aib]GL[Aib]PV[Aib][Aib]EQ[Phe(ol)]; N-terminus assumed) | no differential sensitivity | 6.6 ± 0.1 | Minor cytotoxicity | Rapid alkalization | no longer showed full colocalization of the dye within the DV |  |  |  |  |  |  | 
CC[C@H](C)[C@H](NC(=O)[C@H](C)NC(=O)[C@@H]1CCCN1C(=O)C(C)(C)NC(=O)[C@H](CC(C)C)NC(=O)[C@H](CCC(N)=O)NC(=O)[C@@](C)(CC)NC(C)=O)C(=O)NC(C)(C)C(=O)N1CCC[C@H]1C(=O)N[C@](C)(CC)C(=O)N[C@@H](CC(C)C)C(=O)NC(C)(C)C(=O)N1CCC[C@H]1C(=O)N[C@H](CO)CC(C)C [HZ NPDG-H, harzianin NPDG H] (Ac-[dIva]QL[Aib]PAI[Aib]P[dIva]L[Aib]P[Leu(ol)]) | ~6 fold | > 25 | no cytotoxicity |  | not seen | + | No significant (p > 0.05) change | - | did not induce detectable channel activity | - |  | 
CC[C@@](C)(NC(=O)C(C)(C)NC(=O)[C@H](CC(C)C)NC(=O)[C@@H]1CCCN1C(=O)C(C)(C)NC(=O)[C@H](CC(C)C)NC(=O)CNC(=O)C(C)(C)NC(=O)[C@@H](NC(=O)C(C)(C)NC(=O)[C@H](CCC(N)=O)NC(=O)C(C)(C)NC(=O)C(C)(C)NC(=O)[C@H](C)NC(=O)CNC(=O)C(C)(C)NC(C)=O)C(C)C)C(=O)N[C@@H](CCC(N)=O)C(=O)N[C@H](CO)CC(C)C [TC HA-II, trichorzin HA II] (Ac-[Aib]GA[Aib][Aib]Q[Aib]V[Aib]GL[Aib]PL[Aib][dIva]Q[Leu(ol)]) | no differential sensitivity | 13 ± 2 | Minor cytotoxicity |  | no longer showed full colocalization of the dye within the DV |  |  | ++ | did not reveal channel activity | - |  | 
CC[C@H](C)[C@H](NC(=O)[C@H](CC(C)C)NC(=O)[C@H](CCC(N)=O)NC(=O)[C@@](C)(CC)NC(C)=O)C(=O)NC(C)(C)C(=O)N1CCC[C@H]1C(=O)N[C@](C)(CC)C(=O)N[C@@H](CC(C)C)C(=O)NC(C)(C)C(=O)N1CCC[C@H]1C(=O)N[C@H](CO)CC(C)C [HZ NPDG-I, harzianin NPDG I] (Ac-[dIva]QLI[Aib]P[dIva]L[Aib]P[Leu(ol)]) | 43 fold | > 25 | no cytotoxicity |  | no longer showed full colocalization of the dye within the DV | ++ |  | + | reproducibly induced unambiguous channel-like activity | + | moderate increase | significant (p = 0.0015) increase

From PMC10923054, “Antiplasmodial peptaibols act through membrane directed mechanisms” (Cell Chemical Biology, 2024)
